Measured values reported in ChEMBL document CHEMBL5360530, “Structure activity relationship (SAR) and anticancer activity of pyrrolidine derivatives: Recent developments and future prospects (A review)” (Eur J Med Chem, 2023).
pIC50: −log10 of the molar value.

How the values were obtained:
[1] = test system: MCF7; experiment: Growth inhibition of human MCF7 cells assessed as cell growth inhibition by SRB assay; assay type: functional
[2] = test system: MCF7; experiment: Anticancer activity against human MCF7 cells assessed as cell growth inhibition measured after 24 hrs by MTT assay; assay type: functional, cell-based; settings: MCF7, 24 h
[3] = Cytotoxicity against human Chang liver cells assessed as cell growth inhibition measured after 24 hrs by DAPI and propidium iodide staining based assay; assay type: toxicity
[4] = test system: MDA-MB-435; experiment: Anticancer activity against human MDA-MB-435 cells assessed as cell growth inhibition by SRB assay; assay type: functional, cell-based
[5] = test system: MCF7; experiment: Anticancer activity against human MCF7 cells assessed as cell growth inhibition by SRB assay; assay type: functional, cell-based
[6] = test system: PC-3; experiment: Anticancer activity against human PC-3 cells assessed as cell death at 50 uM measured after 72 hrs by MTT assay relative to control; assay type: functional
[7] = test system: MCF7; experiment: Anticancer activity against human MCF7 cells assessed as cell growth inhibition measured after 48 hrs by MTT assay; assay type: functional, cell-based; settings: MCF7, 48 h
[8] = test system: HT-29; experiment: Anticancer activity against human HT-29 cells assessed as cell growth inhibition measured after 48 hrs by MTT assay; assay type: functional, cell-based; settings: HT-29, 48 h
[9] = test system: K562; experiment: Anticancer activity against human K562 cells assessed as cell growth inhibition measured after 48 hrs by MTT assay; assay type: functional, cell-based; settings: K562, 48 h
[10] = test system: HT-29; experiment: Anticancer activity against human HT-29 cells assessed as cell growth inhibition measured after 24 hrs by MTT assay; assay type: functional, cell-based; settings: HT-29, 24 h
[11] = test system: COS-7; experiment: Anticancer activity against COS-7 cells assessed as cell growth inhibition at 50 uM measured after 48 hrs by MTT assay relative to control; assay type: functional; settings: Chlorocebus aethiops
[12] = test system: PC-3; experiment: Potency index, ratio of cisplatin IC50 to test compound IC50 for anticancer activity against human PC-3 cells; assay type: functional
[13] = test system: HCT-116; experiment: Anticancer activity against human HCT-116 cell assessed as cell growth inhibition; assay type: functional, cell-based
[14] = test system: HepG2; experiment: Anticancer activity against human HepG2 cell assessed as cell growth inhibition; assay type: functional, cell-based
[15] = test system: PC-3; experiment: Anticancer activity against human PC-3 cell assessed as cell growth inhibition; assay type: functional, cell-based
[16] = test system: HCT-116; experiment: Anticancer activity against human HCT-116 cells assessed as cell growth inhibition measured after 48 hrs by MTT assay; assay type: functional, cell-based; settings: HCT-116, 48 h
[17] = test system: HepG2; experiment: Anticancer activity against human HepG2 cells assessed as cell growth inhibition measured after 48 hrs by MTT assay; assay type: functional, cell-based; settings: HepG2, 48 h
[18] = test system: PC-3; experiment: Anticancer activity against human PC-3 cells assessed as cell growth inhibition measured after 48 hrs by MTT assay; assay type: functional, cell-based; settings: PC-3, 48 h
[19] = test system: HCT-116; experiment: Potency index, ratio of cisplatin IC50 to test compound IC50 for anticancer activity against human HCT-116 cells; assay type: functional
[20] = test system: HepG2; experiment: Potency index, ratio of cisplatin IC50 to test compound IC50 for anticancer activity against human HepG2 cells; assay type: functional
[21] = test system: MCF7; experiment: Anticancer activity against human MCF7 cells assessed as cell growth inhibition measured after 24 hrs by SRB assay; assay type: functional, cell-based; settings: MCF7, 24 h
[22] = test system: HCT-116; experiment: Anticancer activity against human HCT-116 cells assessed as cell growth inhibition measured after 24 hrs by SRB assay; assay type: functional, cell-based; settings: HCT-116, 24 h
[23] = test system: Mahlavu; experiment: Anticancer activity against human Mahlavu cells assessed as cell growth inhibition measured after 24 hrs by SRB assay; assay type: functional, cell-based
[24] = test system: Huh-7; experiment: Anticancer activity against human Huh-7 cells assessed as cell growth inhibition measured after 24 hrs by SRB assay; assay type: functional, cell-based; settings: Huh-7, 24 h
[25] = test system: MDA-MB-435; experiment: Growth inhibition of human MDA-MB-435 cells assessed as cell growth inhibition by SRB assay; assay type: functional

CC/C(=C(\c1ccccc1)c1ccc(OCCN(C)C)cc1)c1ccccc1 [TAMOXIFEN]
GI50 [1]: < 10 µg/mL
pIC50 [2]: 4.69
IC50 at 24 h [3]: 46.2 µM

N#CC1=C(N)OC2=C(c3ccccc3C2=O)C12C(=O)Nc1ccc(I)cc12 (stereo unspecified)
pIC50 [4]: ≤ 5.44
pIC50 [5]: ≤ 4.28

COC(=O)[C@H]1C[C@@H](C(=O)OC)C(c2ccccc2)(c2ccccc2)N1C(=O)Cn1cc(CCc2ccccc2)nn1
Activity [6]: 25%

CCc1ccc(CCOc2ccc(CC3SC(=O)NC3=O)cc2)nc1 (stereo unspecified) [PIOGLITAZONE]
pIC50 [7]: 7.15
pIC50 [8]: 4.39
pIC50 [9]: 6.54

O=C1CCC(=O)N1CC(=O)N1N=C(c2ccccc2)CC1c1ccccc1 (stereo unspecified)
pIC50 [7]: 6.41
pIC50 [8]: 6.41
pIC50 [9]: 6.41

O=C1c2ccccc2C(=O)N1/N=C/c1ccc(F)c(Br)c1
pIC50 [10]: 3.60
pIC50 [2]: 3.53

O=C1Nc2ccccc2C12CCNC2c1cccc(F)c1 (stereo unspecified)
inhibition at 50 µM [11]: 0.51%

O=C(c1c[nH]c2ccccc12)[C@@H]1[C@@H](c2cccc(Br)c2)[C@@H]2CSCN2[C@@]12C(=O)Nc1ccccc12
Ratio IC50 [12]: >2.9
pIC50 [13]: 5.05
pIC50 [14]: 5.26
pIC50 [15]: 5.10

O=C(/C=C/c1ccco1)c1ccc(OCCN2CCCC2)cc1
GI50 [1]: > 80 µg/mL

O=C(/C=C/c1cccc([N+](=O)[O-])c1)[C@H]1[C@H](c2cccc([N+](=O)[O-])c2)[C@H]2CSCN2C12C(=O)Nc1ccccc12 (stereo partly specified)
pIC50 [16]: 5.60
pIC50 [17]: 6.00
pIC50 [18]: ≤ 5.57
Ratio IC50 [19]: 4
Ratio IC50 [20]: 2
Ratio IC50 [12]: 1.8

N#CC1=C(N)OC2=C(c3ccccc3C2=O)C12C(=O)Nc1ccccc12 (stereo unspecified)
pIC50 [4]: ≤ 5.44
pIC50 [5]: ≤ 4.28

O=C1CCC(=O)N1CC(=O)N1N=C(c2ccccc2)CC1c1ccc(Cl)c(Cl)c1 (stereo unspecified)
pIC50 [7]: 6.11
pIC50 [8]: 6.41
pIC50 [9]: 4.21

CCCC(C)c1cn(CC(=O)N2[C@@H](C(=O)OC)C[C@@H](C(=O)OC)C2(c2ccccc2)c2ccccc2)nn1 (stereo partly specified)
Activity [6]: 25%

COc1ccc(C2NCCC23C(=O)Nc2ccccc23)cc1OC (stereo unspecified)
inhibition at 50 µM [11]: 0.51%

COC(=O)[C@H]1C[C@@H](C(=O)OC)C(c2ccccc2)(c2ccccc2)N1C(=O)Cn1cc(CC2CCCCC2)nn1
Activity [6]: 64%

O=C(c1c[nH]c2ccccc12)[C@@H]1[C@@H](c2cccc(F)c2)[C@@H]2CSCN2[C@@]12C(=O)Nc1ccccc12
Ratio IC50 [12]: >2.9
pIC50 [13]: 5.05
pIC50 [14]: 5.26
pIC50 [15]: 5.10

COc1cc(/C=N/N2C(=O)c3ccccc3C2=O)cc(OC)c1O
pIC50 [10]: 3.56
pIC50 [2]: 3.53

CC(C)C[C@@H]1N2[C@H](c3ccccc3)[C@H](c3ccccc3)OC(=O)[C@H]2[C@H](c2ccccc2Cl)[C@@]12C(=O)Nc1ccccc12
pIC50 [21]: 4.95
pIC50 [22]: 4.98
pIC50 [23]: 4.58
pIC50 [24]: 4.44

N#CC1=C(N)OC2=C(C(=O)CO2)C12C(=O)Nc1ccccc12 (stereo unspecified)
GI50 [25]: 29.9 µM
pIC50 [4]: ≤ 5.44
pIC50 [5]: ≤ 4.28

CC(=O)O[C@H]1C(=O)[C@@]2(C)[C@H]([C@H](OC(=O)c3ccccc3)[C@]3(O)C[C@H](OC(=O)[C@H](O)[C@@H](NC(=O)c4ccccc4)c4ccccc4)C(C)=C1C3(C)C)[C@]1(OC(C)=O)CO[C@@H]1C[C@@H]2O [PACLITAXEL]
pIC50 [7]: 4.33
pIC50 [8]: 4.70
pIC50 [9]: 6.46

O=C1CCC(=O)N1CC(=O)N1N=C(c2ccccc2)CC1c1ccc(F)cc1 (stereo unspecified)
pIC50 [7]: 6.41
pIC50 [8]: 6.41
pIC50 [9]: 6.41

CC(=O)Oc1ccc(C(=O)/C=C2/C(=O)Nc3ccc(S(=O)(=O)N4CCOCC4)cc32)cc1
pIC50 [22]: 5.29

CC(C)C[C@@H]1N2[C@H](c3ccccc3)[C@H](c3ccccc3)OC(=O)[C@H]2[C@H](c2ccccc2)[C@@]12C(=O)Nc1ccccc12
pIC50 [21]: 5.32
pIC50 [22]: 5.41
pIC50 [23]: 4.83
pIC50 [24]: 5.09

O=C(c1c[nH]c2ccccc12)[C@@H]1[C@@H](c2ccc(Br)cc2)[C@@H]2CSCN2[C@@]12C(=O)Nc1ccccc12
Ratio IC50 [12]: >3
pIC50 [14]: 5.26
pIC50 [15]: 5.15

CC(C)C[C@@H]1N2[C@H](c3ccccc3)[C@H](c3ccccc3)OC(=O)[C@H]2[C@H](c2ccc([N+](=O)[O-])cc2)[C@@]12C(=O)Nc1ccccc12
pIC50 [21]: 5.32
pIC50 [22]: 5.41
pIC50 [23]: 4.83
pIC50 [24]: 4.11

COC(=O)[C@H]1C[C@@H](C(=O)OC)C(c2ccccc2)(c2ccccc2)N1C(=O)Cn1cc(C2CC2)nn1
Activity [6]: 25%
